These are literature values, as cited in US20230148652A1, “ORAL PRODUCTS WITH NICOTINE-POLYMER COMPLEX” (NICOVENTURES TRADING LIMITED, priority 2021, published 2023).

For data set [1] the following is noted: partition between octanol and water.

In the case of `CC(/C=C/C=C(C)/C=C/C(=O)O)=C\C=C\C=C(C)\C=C\C=C(C)\C=C\C(=O)O` (stereo in doubt) [norbixin, (2E,4E,6E,8E,10E,12E,14E,16E,18E)-4,8,13,17-tetramethylicosa-2,4,6,8,10,12,14,16,18-nonaenedioic acid], the solubility result is “water soluble”.

In the case of `COC(=O)/C=C/C(C)=C\C=C\C(C)=C\C=C\C=C(C)\C=C\C=C(C)\C=C\C(=O)O` [bixin, (2E,4E,6E,8E,10E,12E,14E,16Z,18E)-20-methoxy-4,8,13,17-tetramethyl-20-oxoicosa-2,4,6,8,10,12,14,16,18-nonaenoic acid], the solubility result is “soluble in fats and alcohols but insoluble in water”. Moreover, for the setting “when isolated”, the chemical stability result is on record as “chemically unstable when isolated”.

In general, logP refers to a log measure of how a compound divides between an organic and an aqueous phase. With `CC(C)[C@@H]1CC[C@@H](C)C[C@H]1OC(=O)CCC(=O)O` [monomenthyl succinate], the logP in data set [1] is 3.

In the case of ethyl benzoic acid, in data set [1], the logP is given as 2.9.

For isopropyl benzoic acid, the logP in data set [1] is 3.5.
